A short description of data set [1]: In vitro transbuccal permeation of 0.5% ODAN.HCl gel with iontophoresis and/or chemical enhancers (Franz diffusion cells).
Method: Buccal mucosa samples with underlying connective tissue were surgically removed from the pig check area and stored under −30° C. for future use. Prior to use, the samples were thawed at room temperature for at least 3 hours. Then the underlying connective tissue was removed using a scalpel blade and the remaining buccal mucosa was then carefully trimmed using surgical scissors to a thickness of about 300-400 μm. The buccal tissues were placed in phosphate buffered saline (PBS) with pH 7.5 for 1 hour prior to use.
Franz diffusion cells (PermeGear, Hellertown, Pa.) were used for all in vitro permeation studies using buccal tissue under varying conditions: passive (control); 1 hour enhancer pretreatment, 8 hours iontophoresis (0.1, 0.2 and 0.3 mA); and combined treatment of 1 hour enhancer treatment and 8 hours iontophoresis at 0.3 mA, and then passive only up to 24 hrs. All permeation studies were performed at 37° C.
For passive permeation studies, the Franz cell receptor compartment was filled with PBS solution and stirred at 600 rpm. […] At different time points (0.0, 0.5, 1. 3, 5, 8, 12, 20, 24 hrs), 300 μl sample was withdrawn from receptor compartment for HPLC analysis and immediately replaced with 300 μl of PBS (pH=7.5).
For iontophoresis, a Phoresor II Auto—Iontophoresis Power Device (Model PM 850) Iomed, Inc., provided 0.1, 0.2 and 0.3 MA for 8 hrs of treatment. […] The cathode (AgCl) was inserted into the receptor compartment. After 8 hours, iontophoresis was discontinued and then the passive-only permeation continued for 16 hrs. The sampling method and time points were the same as for passive and chemical enhancer pretreatment experiments.
An 8 hour iontophoresis period is referred to herein as Stage I. A post −8 hour iontophoresis period, passive only permeation period is referred to herein as Stage II.
The cumulative drug amount in the receptor compartment after 8 hrs and 24 hrs was defined as Q8 and Q24 (μg cm^−2), respectively. The enhancement ratio (ER) for flux was calculated as follows:
Franz diffusion cells were used for all in vitro permeation studies using buccal tissue under varying conditions: passive (control), 1 hour enhancer pretreatment, 8 hrs. iontophoresis (0.1, 0.2 and 0.3 mA), and combined treatment of 1 hr. enhancer pretreatment and 8 hrs. iontophoresis at 0.3 mA, and then passive only up to 24 hrs. All permeation studies performed at 37° C. The procedure for passive permeation studies described above was followed.
The concentration of ODAN.HCl in the receptor compartment was analyzed by HPLC. […] A C18 column (150×4.6 mm C18 (2) 100 A Luna 5 μm, Phenomenex) with a guard column was used at 25° C.
Data set [2] in a line: Histological study of buccal tissue (H&E, light microscopy). Particulars: after passive permeation (FIG. 6); light micrographs 40×. Details: species or system porcine.
Method: The morphological changes in both untreated and treated buccal tissues were evaluated using light microscopy. Buccal membrane samples were sectioned carefully and fixed in 10% buffered formalin for 1 day at room temperature. […] This was followed by immersing in xylene at least three times, and finally embedding in Tissue-Tek O.C.T. compound under dry ice. […] The stained slices were examined under a Nikon Eclipse E 800 light microscope (Micro Optics, Cedar Knolls, N.J.) at 40×. A Nikon Digital Camera (Model DXM 1200) was used to capture images. Images were processed by SPOT™ Imaging Software, Version 5.0 (Diagnostic Instrument, Inc., Sterling Heights, Mich.).
A histological study was performed to evaluate the integrity of treated and untreated porcine tissues using standard H&E methodology.
The nature of data set [3]: In vitro transdermal permeation of LHCl, NHT and DHCl gels (Franz diffusion cells). Particulars: for enhancement effect on transdermal delivery of NHT / enhancement effect on transdermal delivery of LHCl / enhancement effect on transdermal delivery of DHCl: in words, 1 hr. enhancer pretreatment, compared to control; for Flux / Q8: Transdermal.
A short description of data set [4]: In vitro transbuccal permeation of LHCl, NHT and DHCl gels (Franz diffusion cells). Conditions: for Q8 / Flux: Transbuccal.
Method: Buccal mucosa samples were harvested from pig's cheek area and placed below −30° C. The tissue samples were defrosted at room temperature first before use. Then a scalpel blade and a surgical scissor were used to remove the underlying connective tissue and trim the buccal mucosa to about 300 to 400 μm in thickness. Before each evaluation the buccal tissues were submerged in PBS (pH 7.5) for 1 hour.
Iontophoresis was terminated after 8 hour application.
A short description of data set [5]: Physicochemical properties stated in the description. Conditions: in words; reason for preparing solutions in PG only.
For data set [6] the following is noted: in words; drug description; cited from earlier work.
[7] abbreviates: Stage II after 8 h iontophoresis 0.2 mA.
Where [8] appears, read: in words, 1 hr. enhancer pretreatment, compared to control.
Where [9] appears, read: Control (untreated passive), 8 h (Tables 19-21).
[10] abbreviates: iontophoresis 0.3 mA for 8 h (Tables 19-21).
[11] abbreviates: iontophoresis 0.3 mA for 8 h, listed as nicotine hydrogen tartrate, tartrate.
Where [12] appears, read: iontophoresis 0.3 mA for 8 h, tartrate.

The source of these data is patent US20130178463A1, “ENHANCED TRANSBUCCAL DRUG DELIVERY SYSTEM AND COMPOSITIONS” (Rutgers, The State University of New Jersey, priority 2010, published 2013).

Counter-ions that a name gives are not always drawn. Marks after values point to notes of the source that are not given here.

From the text for EpiOral™ tissue: MTS 3-(4,5-dimethylthiazol-2-yl)-5-(3-carboxymethoxyphenyl)-2-(4-sulfophenyl)-2H-tetrazolium, inner salt) assay was used to evaluate enhancer cytotoxicity in buccal tissues. […] The number of surviving cells is directly proportional to the level of the formazan. The color can then be quantified at 490 nm using a Microplate Power Wave X Scanning Spectrophotometer (Bio-TEK Instruments, Inc., Winooski, Vt.).
EpiOral™ tissue (ORL-200) was used, which is a multilayered tissue mainly composed of an organized basal layer and multiple non-cornified layers analogous to native human buccal tissue. A 24-well plate containing ORL-200 (cell culture inserts) was stored in the refrigerator (4° C.) prior to use. […] After this, 100 μl of the reacted MTS solution from each well was pipetted into a marked 96-well microtiter plate for spectrophotometer reading (SPR) at 490 nm using Microplate Power Wave X Scanning Spectrophotometer (Bio-TEK Instruments, Inc., Winooski, Vt.). […] The EpiOral tissue % viability at each of the dosed concentrations was calculated using the following formula: […]
Dose response curve was established using a semi-log scale to plot % viability (linear y axis) vs. the dosing time (log x axis). […] All the SPR were deducted from blank readings for viability and ET-50 value final calculations. […]

In the case of `Cc1nccn1CC1CCc2c(c3ccccc3n2C)C1=O` (racemic) [ODAN•HCl, (±) 1,2,3,9-tetrahydro-9-methyl-3-[(2-methyl-1H-imidazol-1-yl)methyl]-4H-carbazol-4-one, monohydrochloride, dihydrate], the Q8 in data set [1] (0.5% ODAN.HCl gel, Stage I, Control (passive)) is 25.5 ± 5.1 µg/cm²; in data set [1] (Stage I, iontophoresis 0.1 mA), 83.3 ± 33.5 µg/cm²; in data set [1] (Stage I, iontophoresis 0.2 mA), 133 ± 50.1 µg/cm²; in data set [1] (Stage I, iontophoresis 0.3 mA), 190 ± 42.7 µg/cm². Moreover, the Flux in data set [1] (0.5% ODAN.HCl gel, Stage I, iontophoresis 0.1 mA) is reported as 10.6 ± 4.5^b μg/cm^2/h; in data set [1] (0.5% ODAN.HCl gel, Stage I, iontophoresis 0.2 mA) it was 16.5 ± 6.5^b μg/cm^2/h; in data set [1] (0.5% ODAN.HCl gel, Stage I, iontophoresis 0.3 mA), 22.8 ± 4.6^b μg/cm^2/h; in data set [1] (Stage II (8-24 h, passive) after 8 h iontophoresis 0.1 mA), 13.7 ± 4.3^b μg/cm^2/h; in data set [1] (setting [7]), 12.7 ± 5.3^b μg/cm^2/h; in data set [1] (Stage II after 8 h iontophoresis 0.3 mA, listed as ODAN.HCl, monohydrochloride, dihydrate), 11.9 μg/cm^2/h. In addition, the Flux in data set [1] (Stage II after 8 h iontophoresis 0.3 mA, monohydrochloride, dihydrate) is recorded as 11.9 ± 2.3^b μg/cm^2/h. The ER in data set [1] (Stage I, Control (reference)) is 1; in data set [1] (Stage I, iontophoresis 0.1 mA, flux vs control), 3.3; in data set [1] (Stage I, iontophoresis 0.2 mA, flux vs control), 5.2; in data set [1] (Stage I, iontophoresis 0.3 mA, flux vs control) it was 7.1; in data set [1] (Stage II after 8 h iontophoresis 0.1 mA, flux vs control) it was 2.8; in data set [1] (Stage II after 8 h iontophoresis 0.2 mA, flux vs control), 2.6. Also, the ER is 2.4 in data set [1] (Stage II after 8 h iontophoresis 0.3 mA, flux vs control) and 1 in data set [1] (Stage II, Control (reference)). Besides, the Q24 in data set [1] (Stage II after 8 h iontophoresis 0.1 mA) was 297 ± 90.1 µg/cm²; in data set [1] (setting [7]), 337 ± 130 µg/cm²; in data set [1] (Stage II after 8 h iontophoresis 0.3 mA), 380 ± 68.1 µg/cm²; in data set [1] (Stage II, Control (passive)), 105 ± 22.8 µg/cm². In addition, in data set [2], the “morphology of buccal tissue compared to untreated” value is recorded as “no major morphological changes”.

On to `CCCCCCCCCCCCN1CCCCCC1=O` [Azone, 1-Dodecylazacycloheptan-2-one], for which the “enhancement effect on transdermal delivery of NHT” value in data set [3] is “no enhancement effect”. Moreover, the “enhancement effect on transbuccal delivery of NHT” value in data set [4] (setting [8]) is “no enhancement effect”.

For `CS(C)=NC(=O)c1ccc(Br)cc1` [Br-iminosulfurane], the aqueous solubility result in data set [5] is “low aqueous solubilities”. Besides, in data set [3], the “enhancement effect on transdermal delivery of LHCl” value is listed as “enhanced” and the “enhancement effect on transdermal delivery of NHT” value is recorded as “no enhancement effect”. For the same compound, in data set [4] (setting [8]), the “enhancement effect on transbuccal delivery of LHCl” value was “enhanced” and the “enhancement effect on transbuccal delivery of NHT” value is “no enhancement effect”.

Turning to `CCCCCCCCCCCCOC(=O)C(C)N(C)C` (stereo not shown) [DDAIP, dodecyl 2-(N,N dimethylamino) propionate], the “effectiveness in enhancing ODAN.HCl permeability across porcine buccal tissues” value in data set [1] (in words, summary of Example 6) was “only marginally effective”. The aqueous solubility result in data set [5] is recorded as “low aqueous solubilities”. Also, in data set [3], the “enhancement effect on transdermal delivery of DHCl” value is recorded as “had enhancement effect”, the “enhancement effect on transdermal delivery of LHCl” value is listed as “had enhancement effect” and the “enhancement effect on transdermal delivery of NHT” value is on record as “no enhancement effect”. Besides, in data set [4] (setting [8]), the “enhancement effect on transbuccal delivery of DHCl” value is “had enhancement effect” and the “enhancement effect on transbuccal delivery of LHCl” value is listed as “had enhancement effect”.

Consider `CCCCCCCCCCCCOC(=O)C(C)N(C)C.Cl` (stereo not shown) [DDAIP.HCl, dodecyl-2-N,N-dimethylaminopropionate hydrochloride], for which, in data set [3], the “enhancement effect on transdermal delivery of DHCl” value is given as “no enhancement effect”, the “enhancement effect on transdermal delivery of LHCl” value was “no enhancement effect” and the “enhancement effect on transdermal delivery of NHT” value was “no enhancement effect”. Also, the “effect on viability of EpiOral tissue compared to water” value in the data set with EpiOral™ tissue is given as “did not reduce the viability”.

For `COc1ccc([C@@H]2Sc3ccccc3N(CCN(C)C)C(=O)[C@@H]2OC(C)=O)cc1` [Diltiazem HCl, 1,5-Benzothiazepin-4(5H) one, 3-(acetyloxy)-5-[2-(dimethylamino)ethyl]-2,3-dihyro-2-(4-methoxyphenyl)-, monohydrochloride, (+)-cis-], the solubility result in data set [6] was “soluble in water, methanol, and chloroform”.

Take `CCN(CC)CC(=O)Nc1c(C)cccc1C` [Lidocaine HCl, 2-(Diethylamino)-2′,6′-acetoxylidide mono-hydrochloride, monohydrate]: the Q8 in data set [4] (setting [9]) is 345.6 ± 74.3^ μg/cm^2; in data set [4] (setting [10]) it was 1910.2 ± 454.7^b μg/cm^2. Further, the Flux in data set [4] (Control (untreated passive), 8 h, […] LHCl, 2% NHT or 2% DHCl gel, listed as lidocaine HCl, mono-hydrochloride, monohydrate) is given as 44.7 ± 9.6 μg/cm^2*h; in data set [4] (iontophoresis 0.1 mA for 8 h) it was 137.1 ± 13.1^b μg/cm^2*h; in data set [4] (iontophoresis 0.3 mA for 8 h, listed as lidocaine HCl, mono-hydrochloride, monohydrate) it was 241.7 ± 60.5^c μg/cm^2*h; in data set [4] (iontophoresis 0.3 mA for 8 h, mono-hydrochloride, monohydrate) it was 241.7 ± 60.5^b μg/cm^2*h.

Turning to `CN1CCCC1c1cccnc1.O=C(O)C(O)C(O)C(=O)O` (stereo not shown) [Nicotine Hydrogen Tartrate, Nicotine hydrogen tartrate], the Flux in data set [3] (Control (untreated passive), 8 h, […] LHCl, 2% NHT or 2% DHCl gel) is listed as 1.3 ± 1.9 μg/cm^2*h; in data set [3] (iontophoresis 0.1 mA for 8 h) it was 56.1 ± 11.4^b μg/cm^2*h; in data set [3] (setting [11]) it was 138.4 ± 72.3^c μg/cm^2*h; in data set [3] (setting [12]), 138.4 ± 72.3^b μg/cm^2*h; in data set [4] (Control (untreated passive), 8 h, […] LHCl, 2% NHT or 2% DHCl gel, listed as nicotine hydrogen tartrate, tartrate), 0.9 ± 0.4 μg/cm^2*h; in data set [4] (iontophoresis 0.1 mA for 8 h), 17.6 ± 6.9^b μg/cm^2*h. Further, the values for the Flux in data set [4] (setting [11]) and in data set [4] (setting [12]) were 81.7 ± 35.9^c μg/cm^2*h and 81.7 ± 35.9^b μg/cm^2*h, respectively. In addition, the Q8 is reported as 9.9 ± 14.6 μg/cm^2 in data set [3] (Control (untreated passive), 8 h, tartrate); 433.2 ± 85.4^b μg/cm^2 in data set [3] (iontophoresis 0.1 mA for 8 h); 1326.6 ± 186.2^c μg/cm^2 in data set [3] (setting [11]); 1326.6 ± 186.2^b μg/cm^2 in data set [3] (setting [12]); 6.9 ± 2.6^ μg/cm^2 in data set [4] (setting [9]); 629.5 ± 276.8^b μg/cm^2 in data set [4] (setting [10]). Further, the solubility entry in data set [6] is “soluble in water”.
